The results in this text go back to US20120015957A1, “PIPERAZINYL DERIVATIVES USEFUL AS MODULATORS OF THE NEUROPEPTIDE Y2 RECEPTOR” (priority 2007, published 2012).

One may read the IC50 as the concentration that inhibits the measured activity by half.

In one experiment the target is T1, NPY Y2 receptor (Homo sapiens, UniProt P49146).
T1 construct: endogenous in cells; host or cells: KAN-Ts cells (membrane preparation)
T1 sequence (P49146 1-381): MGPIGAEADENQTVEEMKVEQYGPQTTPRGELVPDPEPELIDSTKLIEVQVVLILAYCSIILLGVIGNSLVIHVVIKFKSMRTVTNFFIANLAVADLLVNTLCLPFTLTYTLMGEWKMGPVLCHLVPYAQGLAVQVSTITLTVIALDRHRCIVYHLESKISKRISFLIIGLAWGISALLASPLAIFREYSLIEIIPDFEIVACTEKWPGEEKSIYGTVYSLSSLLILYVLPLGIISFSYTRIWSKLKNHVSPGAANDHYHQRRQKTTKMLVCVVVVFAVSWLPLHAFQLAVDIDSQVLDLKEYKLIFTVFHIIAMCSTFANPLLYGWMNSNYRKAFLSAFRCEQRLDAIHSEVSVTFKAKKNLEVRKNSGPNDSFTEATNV
Description: Neuropeptide Y2 radioligand binding assay ([125I]PYY, KAN-Ts cell membranes).
Conditions: not given
How it is done: KAN-Ts endogenously expressing Y2 receptors were used for the radioligand binding assay. Cells were grown to confluence on 150 cm^2 tissue culture plates, washed with phosphate-buffered saline (PBS), and scraped into 50 mL tubes. After centrifugation, the supernatant was aspirated, and the pellets frozen and stored at −80° C. Thawed pellets were homogenized with a polytron tissue grinder for 15 sec in 20 mM Tris-HCl, 5 mM EDTA. The homogenate was centrifuged at 800×g for 5 min and the collected supernatant was recentrifuged at 25000×g for 25 min. The resulting pellet was resuspended in binding buffer (20 mM HEPES, 120 mM NaCl, 0.22 mM KH2PO4, 1.3 mM CaCl2, 0.8 mM MgSO4). Membranes were incubated with [^125I]PYY (80 pM) in the presence or absence of test compound for 1 h at rt. The reaction was stopped by filtration through GF/C filter plates pre-soaked in 0.3% polyethylenimine and subsequently washed with Tris 50 mM, 5 mM EDTA buffer. Plates were dried for 1 h in a 55° C. oven, scintillation fluid was added and the radioactivity was counted in a Packard TopCount. Specific binding to the NPY receptor subtypes was determined by radioactivity that was bound in the presence of […] NPY. Each binding experiment was repeated three to eight times, each in duplicate. IC50 values (i.e. concentration of unlabelled peptide or antagonist required to compete for 50% of specific binding to the radioligand) were determined using the GraphPad Prism software (GraphPad Software Inc., San Diego Calif.) with a fit to a sigmoidal dose response curve. Apparent K values were as K=IC50/(1+C/KD), where C is concentration of the radioligand.
`CCNC(=O)C(c1ccccc1)N1CCN(c2ccc(-c3nc(C(C)C)no3)cc2C#N)CC1` (stereo not shown) [Compound 270]: the IC50 was found to be 0.062 µM.

Still in this experiment, the particulars now being: membranes of KAN-Ts cells endogenously expressing Y2 receptors; [125I]PYY 80 pM; 1 h at rt; read-out: IC50 (μM), NPY Y2 binding.
On to `CCN(CC)C(=O)C(c1ccccc1)N1CCN(c2ccc(C3=N[C@H](C(=O)OC)CO3)cc2F)CC1` (stereo partly shown) [Compound 124, 2-{4-[4-(Diethylcarbamoyl-phenyl-methyl)-piperazin-1-yl]-3-fluorophenyl}-4,5-dihydro-oxazole-4-carboxylic acid methyl ester], for which the IC50 amounted to 1 µM.
On to `CCN(CC)C(=O)C(c1ccccc1)N1CCN(c2ccc(-c3cc(C)n[nH]3)cc2F)CC1` (stereo not shown) [Compound 200, N,N-Diethyl-2-{4-[2-fluoro-4-(5-methyl-2H-pyrazol-3-yl)-phenyl]-piperazin-1-yl}-2-phenyl-acetamide], for which the IC50 came to 0.81 µM.
On the same count and under the same terms, the result for `CCN(CC)C(=O)C(c1ccccc1)N1CCN(c2ccc(-c3ccccn3)cc2F)CC1` (stereo not shown) [Compound 201, N,N-Diethyl-2-[4-(2-fluoro-4-pyridin-2-yl-phenyl)-piperazin-1-yl]-2-phenyl-acetamide] reads 0.74 µM.
On the same count and under the same terms, next, `CCN(CC)C(=O)C(c1ccccc1)N1CCN(c2ccc(-c3ccc(C)cc3)cc2F)CC1` (stereo not shown) [Compound 204, N,N-Diethyl-2-[4-(3-fluoro-4′-methyl-biphenyl-4-yl)-piperazin-1-yl]-2-phenyl-acetamide]: 0.77 µM.
On to `CCN(CC)C(=O)C(c1ccccc1)N1CCN(c2ccc(-c3nc(C(C)C)no3)cc2COC)CC1` (stereo not shown) [Compound 260, N,N-Diethyl-2-{4-[4-(3-isopropyl-[1,2,4]oxadiazol-5-yl)-2-methoxymethyl-phenyl]-piperazin-1-yl}-2-phenyl-acetamide], for which the IC50 was 0.98 µM.
Still for that read-out and setting: next, `CCN(CC)C(=O)C(c1cc(F)ccc1Br)N1CCN(c2ccc(-c3nc(C)no3)cc2F)CC1` (stereo not shown) [Compound 209, 2-(2-Bromo-5-fluoro-phenyl)-N,N-diethyl-2-{4-[2-fluoro-4-(3-methyl-[1,2,4]oxadiazol-5-yl)-phenyl]-piperazin-1-yl}-acetamide]: 0.99 µM; `CCN(CC)C(=O)C(c1ccccc1)N1CCN(c2ccc(-c3ccccc3)cc2F)CC1` (stereo not shown) [Compound 193, N,N-Diethyl-2-[4-(3-fluoro-biphenyl-4-yl)-piperazin-1-yl]-2-phenyl-acetamide]: 0.42 µM; `CCN(CC)C(=O)C(c1ccccc1)N1CCN(c2ccc(-c3nc(C(C)C)no3)cc2CNC)CC1` (stereo not shown) [Compound 258, N,N-Diethyl-2-{4-[4-(3-isopropyl-[1,2,4]oxadiazol-5-yl)-2-methylaminomethyl-phenyl]-piperazin-1-yl}-2-phenyl-acetamide]: 1.8 µM.
Still for that read-out and setting: next, `CCN(CC)C(=O)C(c1ccccc1)N1CCN(c2ccc(-c3noc(C4CCC4)n3)cc2F)CC1` (stereo not shown) [Compound 89, 2-{4-[4-(5-Cyclobutyl-[1,2,4]oxadiazol-3-yl)-2-fluoro-phenyl]-piperazin-1-yl}-N,N-diethyl-2-phenyl-acetamide]: 0.85 µM; `Cc1noc(-c2ccc(N3CCN(C(C(=O)OC(C)(C)C)c4ccccc4)CC3)c(F)c2)n1` (stereo not shown) [Compound 219, {4-[2-Fluoro-4-(3-methyl-[1,2,4]oxadiazol-5-yl)-phenyl]-piperazin-1-yl}-phenyl-acetic acid tert-butyl ester]: 0.66 µM.
On the same count and under the same terms, next, `CCN(CC)C(=O)C(c1cccs1)N1CCN(c2ccc(-c3nc(C)no3)cc2C#N)CC1` (stereo not shown) [Compound 252, 2-{4-[2-Cyano-4-(3-methyl-[1,2,4]oxadiazol-5-yl)-phenyl]-piperazin-1-yl}-N,N-diethyl-2-thiophen-2-yl-acetamide]: 0.096 µM; `CCN(CC)C(=O)C(c1ccc(OC)cc1)N1CCN(c2ccc(-c3nc(C)no3)cc2C#N)CC1` (stereo not shown) [Compound 250, 2-{4-[2-Cyano-4-(3-methyl-[1,2,4]oxadiazol-5-yl)-phenyl]-piperazin-1-yl}-N,N-diethyl-2-(4-methoxy-phenyl)-acetamide]: 0.035 µM.
